# Experimental data from PMC2358886, “Evolution of pharmacologic specificity in the pregnane X receptor” (BMC Evolutionary Biology, 2008).
# Read-outs that look alike come from different tables or passages of the source.
# Assays:
# mouse PXR = target: T1, mouse PXR (Mus musculus, UniProt O54915)
# T1 sequence (O54915 1-431): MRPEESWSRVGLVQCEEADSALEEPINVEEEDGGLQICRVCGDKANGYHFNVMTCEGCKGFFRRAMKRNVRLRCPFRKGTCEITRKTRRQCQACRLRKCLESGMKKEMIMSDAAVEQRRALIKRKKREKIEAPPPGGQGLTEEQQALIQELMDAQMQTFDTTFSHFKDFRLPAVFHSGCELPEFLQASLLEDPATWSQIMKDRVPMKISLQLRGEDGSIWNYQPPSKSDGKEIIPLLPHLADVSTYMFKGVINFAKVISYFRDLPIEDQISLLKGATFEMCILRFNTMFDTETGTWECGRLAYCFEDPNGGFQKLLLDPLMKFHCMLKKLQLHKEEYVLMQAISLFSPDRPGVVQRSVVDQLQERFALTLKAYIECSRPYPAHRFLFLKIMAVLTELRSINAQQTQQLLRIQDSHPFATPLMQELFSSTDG
# rat PXR [1] = target: T2, rat PXR (Rattus norvegicus, UniProt Q9R1A7)
# T2 sequence (Q9R1A7 1-431): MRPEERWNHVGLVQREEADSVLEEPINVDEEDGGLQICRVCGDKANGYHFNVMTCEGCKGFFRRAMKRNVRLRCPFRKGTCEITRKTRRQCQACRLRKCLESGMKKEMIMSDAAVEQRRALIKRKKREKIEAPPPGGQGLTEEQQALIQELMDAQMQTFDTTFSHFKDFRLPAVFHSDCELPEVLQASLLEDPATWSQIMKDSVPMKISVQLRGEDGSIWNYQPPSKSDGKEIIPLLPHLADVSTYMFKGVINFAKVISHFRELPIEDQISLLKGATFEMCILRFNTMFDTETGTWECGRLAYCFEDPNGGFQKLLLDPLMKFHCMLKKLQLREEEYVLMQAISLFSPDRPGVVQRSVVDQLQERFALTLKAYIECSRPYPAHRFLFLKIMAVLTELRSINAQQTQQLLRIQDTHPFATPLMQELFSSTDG
# rabbit PXR [2] = target: T3, rabbit PXR (Oryctolagus cuniculus, UniProt Q9TU02)
# T3 sequence (Q9TU02 1-411): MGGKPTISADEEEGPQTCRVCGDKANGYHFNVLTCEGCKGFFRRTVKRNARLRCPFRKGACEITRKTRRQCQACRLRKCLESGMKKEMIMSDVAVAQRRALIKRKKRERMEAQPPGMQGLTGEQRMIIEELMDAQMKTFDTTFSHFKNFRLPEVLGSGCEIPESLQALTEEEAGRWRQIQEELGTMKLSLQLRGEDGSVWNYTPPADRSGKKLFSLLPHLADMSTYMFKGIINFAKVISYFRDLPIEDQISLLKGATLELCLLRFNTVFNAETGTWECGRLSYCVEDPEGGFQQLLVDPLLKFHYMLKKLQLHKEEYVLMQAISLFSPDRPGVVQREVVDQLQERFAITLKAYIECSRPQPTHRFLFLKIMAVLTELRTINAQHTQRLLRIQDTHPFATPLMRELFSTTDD
# chicken PXR [3] = target: T4, chicken PXR (Gallus gallus, UniProt Q9DFH3); conditions: for Chicken PXR Activity: -log(EC50), EC50 in molar units
# T4 sequence (Q9DFH3 1-391): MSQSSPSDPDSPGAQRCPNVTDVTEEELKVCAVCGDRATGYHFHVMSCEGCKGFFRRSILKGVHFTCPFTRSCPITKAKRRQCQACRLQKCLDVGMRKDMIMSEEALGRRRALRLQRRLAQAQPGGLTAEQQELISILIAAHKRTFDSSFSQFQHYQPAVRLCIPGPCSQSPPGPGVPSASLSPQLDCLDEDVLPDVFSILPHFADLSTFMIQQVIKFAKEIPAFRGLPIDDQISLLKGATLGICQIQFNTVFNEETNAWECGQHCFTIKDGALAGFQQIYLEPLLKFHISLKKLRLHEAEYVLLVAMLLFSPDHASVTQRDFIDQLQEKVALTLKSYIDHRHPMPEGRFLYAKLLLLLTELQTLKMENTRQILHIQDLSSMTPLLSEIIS
# chicken PXR [4] = target: T4, chicken PXR; assay: cell-based
# human PXR = target: T5, human PXR (Homo sapiens, UniProt O75469)
# T5 sequence (O75469 1-434): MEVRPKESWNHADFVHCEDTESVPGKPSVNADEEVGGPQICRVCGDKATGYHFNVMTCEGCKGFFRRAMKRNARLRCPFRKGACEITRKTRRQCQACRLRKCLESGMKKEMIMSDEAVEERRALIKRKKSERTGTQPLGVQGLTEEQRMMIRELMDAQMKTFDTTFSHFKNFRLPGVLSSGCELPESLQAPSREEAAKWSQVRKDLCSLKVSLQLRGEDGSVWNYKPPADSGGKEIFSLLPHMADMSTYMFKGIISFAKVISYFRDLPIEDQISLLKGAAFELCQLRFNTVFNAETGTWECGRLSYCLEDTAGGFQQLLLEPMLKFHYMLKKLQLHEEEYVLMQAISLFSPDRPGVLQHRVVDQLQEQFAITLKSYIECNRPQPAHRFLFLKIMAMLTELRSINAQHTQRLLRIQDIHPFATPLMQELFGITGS
# zebrafish PXR [5] = target: T6, zebrafish PXR (Danio rerio, UniProt A5WYG8); conditions: for zfPXR Activity: -log(EC50), EC50 in molar units, activation of zebrafish PXR
# T6 sequence (A5WYG8 144-430): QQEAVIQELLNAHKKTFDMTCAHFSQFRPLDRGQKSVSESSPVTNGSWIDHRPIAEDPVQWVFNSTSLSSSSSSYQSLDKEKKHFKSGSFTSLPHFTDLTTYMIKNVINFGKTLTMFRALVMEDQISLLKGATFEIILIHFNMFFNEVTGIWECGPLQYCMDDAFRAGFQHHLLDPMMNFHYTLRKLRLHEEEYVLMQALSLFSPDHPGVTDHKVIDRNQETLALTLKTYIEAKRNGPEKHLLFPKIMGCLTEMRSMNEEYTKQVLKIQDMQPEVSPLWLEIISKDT
# rabbit PXR [6] = target: T3, rabbit PXR; assay: PXR activation luciferase reporter assay, rabbit PXR; conditions: -log(EC50), EC50 in molar units
# Ciona VDR/PXR = assay: Activation of Ciona VDR/PXR (LBD/GAL4 chimeric receptor) luciferase reporter assay; type: cell-based, Ciona intestinalis; conditions: screening, reference maximal activator 20 μM 6-formylindolo-[3,2-b]carbazole
# From the text: The LBD of Ciona VDR/PXR was cloned from cDNA fragments generously provided by Professors Yuji Kohara and Norituki Satoh, and then inserted into the PM2-GAL4 plasmid to create an LBD/GAL4 chimeric receptor.
# The LBD of Xenopus tropicalis (Western clawed frog) PXR (xtPXR) was cloned by PCR from RNA extracted from ovary of an adult female frog. Ciona VDR/PXR was cloned from cDNA fragments ciem829d05 and cilv048e18 provided by Professor Yuji Kohara (Center for Genetic Resource Information, National Institute of Genetics, Research Organization of Information and Systems, Mishima, Japan) and Professor Noriyuki Satoh (Kyoto University, Kyoto, Japan), with analysis of the cDNA clones supported by Grant-in-aid for Scientific Research on Priority Area "Genome" of Ministry of Education, Culture, Sports, Science and Technology, Japan.
# The creation of a HepG2 (human liver) cell line stably expressing the human Na^+-taurocholate cotransporter (NTCP) has been previously reported. HepG2-NTCP cells were grown in modified Eagle's medium-α containing 10% fetal bovine serum and 1% penicillin/streptomycin (Invitrogen, Carlsbad, CA, USA). Plasmids containing cDNAs for 8 PXRs from 7 species (human, mouse, rat, rabbit, chicken [also called chicken X receptor, CXR], African clawed frog [also termed Xenopus laevis benzoate X receptors α and β, BXRα and BXRβ ], zebrafish), as well as the reporter constructs tk-UAS-Luc and CYP3A4-PXRE-Luc, and 'empty' vectors pCDNA, PsG5, and PM2 were generously provided by SA Kliewer, JT Moore, and LB Moore (GlaxoSmithKline, Research Triangle Park, NC, USA). […] For the full-length expression vectors, the reporter plasmid was CYP3A4-PXRE-Luc, a construct that contains a promoter element from CYP3A4 (recognized by PXR DBDs) driving luciferase expression. For the GAL4/LBD expression constructs, the reporter plasmid was tk-UAS-Luc, which contains GAL4 DNA binding elements driving luciferase expression. The following transfection ratios of reporter, receptor, and β-galactosidase plasmids were used (ng/well): human, mouse, rabbit, and rat PXRs – 25/2.7/20; chicken PXR – 10/1/20; Xenopus tropicalis PXR, zebrafish PXR, and Ciona VDR/PXR – 75/50/20.
# The PXR activation assay was a luciferase-based reporter assay. On day 1, 30,000 cells/well were seeded onto 96-well white opaque plates (Corning-Costar, Corning, NY, USA). On day 2, cells were transfected using the calcium phosphate precipitation method with expression vector or 'empty' control vector and luciferase reporter plasmid. On day 3, the cells were washed and then incubated with medium containing charcoal-dextran treated fetal bovine serum (Hyclone, Logan, UT, USA) and drugs or vehicle. On day 4, the cells were washed and the medium replaced with serum-free medium. […]
# Xenopus tropicalis PXR = assay: Activation of Xenopus tropicalis PXR (GAL4-LBD chimeric construct) luciferase reporter assay; type: cell-based
# Description: Cloning of the LBD of this PXR from adult female ovary and expression in a GAL4-LBD chimeric construct allowed for determination of ligand specificity.
# The PXR activation assay was a luciferase-based reporter assay [17, 45]. On day 1, 30,000 cells/well were seeded onto 96-well white opaque plates (Corning-Costar, Corning, NY, USA). On day 2, cells were transfected using the calcium phosphate precipitation method with expression vector or 'empty' control vector and luciferase reporter plasmid. On day 3, the cells were washed and then incubated with medium containing charcoal-dextran treated fetal bovine serum (Hyclone, Logan, UT, USA) and drugs or vehicle. […]
# chicken PXR [7] = target: T4, chicken PXR; assay: in vitro
# zebrafish PXR [8] = target: T6, zebrafish PXR; assay: cell-based
# rat PXR [9] = target: T2, rat PXR; assay: cell-based
# [10] = -log(EC50), EC50 in molar units
smiles,measurement,setting,value
"C[C@H](CCC(=O)O)[C@H]1CC[C@H]2[C@@H]3C[C@@H](O)[C@@H]4C[C@H](O)CC[C@]4(C)[C@H]3CC[C@]12C [BI004, Murideoxycholic acid]",Mouse PXR Activity,mouse PXR,5.09
same,Rat PXR Activity,rat PXR [1],4.80
same,Rabbit PXR Activity,rabbit PXR [2],4.52
same,Chicken PXR Activity,chicken PXR [3],No effect
"C[C@H](CCC(=O)O)[C@H]1CC[C@H]2[C@@H]3[C@H](O)C[C@@H]4C[C@H](O)CC[C@]4(C)[C@H]3CC[C@]12C [BI005, Chenodeoxycholic acid]",Rat PXR Activity,rat PXR [1],No effect
same,"Rabbit PXR efficacy, ε",rabbit PXR [2]; rabbit,4.70 (ε = 0.42)
same,"Chicken PXR efficacy, ε",chicken PXR [3]; chicken,4.70 (ε = 0.36)
same,EC50,chicken PXR [4],20 µM
"C[C@H](CCC(O)C(CO)COS(=O)(=O)O)[C@H]1CC[C@H]2[C@@H]3[C@H](O)C[C@@H]4C[C@H](O)CC[C@]4(C)[C@H]3C[C@H](O)[C@]12C (stereo partly drawn) [BI034, 5β-Cholestan-3α,7α,12α,24,26-pentol-27-sulfate]",hPXR Efficacy,human PXR,0.39
same,zfPXR Efficacy,zebrafish PXR [5],0.13
same,zfPXR Activity,zebrafish PXR [5],4.35
same,Activation of zebrafish PXR (in words),zebrafish PXR [5]; bile salts,activated
same,Toxicity,HepG2 cells,200 µM
same,"Mouse PXR efficacy, ε",mouse PXR,0.85
same,Mouse PXR Activity,mouse PXR; [10],4.44
same,"Rat PXR efficacy, ε",rat PXR [1],0.85
same,Rat PXR Activity,rat PXR [1]; [10],4.40
same,"Rabbit PXR efficacy, ε",rabbit PXR [2],1.93
same,"Chicken PXR efficacy, ε",chicken PXR [3],0.88
same,Chicken PXR Activity,chicken PXR [3],4.37
same,Rabbit PXR Activity,rabbit PXR [6],4.09
"CC(CCC[C@@H](C)[C@H]1CC[C@H]2[C@@H]3[C@H](O)C[C@@H]4C[C@H](O)CC[C@]4(C)[C@H]3C[C@H](O)[C@]12C)C(=O)NCCS(=O)(=O)O (stereo partly drawn) [BI038, 3α,7α,12αtTrihydroxy-5β-cholestan-27-oic acid, taurine conjugated]",hPXR Activity,human PXR,None
same,zfPXR Activity,zebrafish PXR [5],None
same,Toxicity,HepG2 cells,200 µM
same,Mouse PXR Activity,mouse PXR,No effect
same,Rat PXR Activity,rat PXR [1],No effect
same,Rabbit PXR Activity,rabbit PXR [2],No effect
same,Chicken PXR Activity,chicken PXR [3],No effect
"CCCCOC(=O)c1ccc(N)cc1 [MI4, n-Butyl-4-aminobenzoate]",Activation of Ciona VDR/PXR (in words),Ciona VDR/PXR; listed as n-butyl p-aminobenzoate,Weaker activation
same,Activation of Ciona VDR/PXR (in words),Ciona VDR/PXR; listed as n-butyl-p-aminobenzoate,micromolar range
same,Activation of Xenopus tropicalis PXR (in words),Xenopus tropicalis PXR,activates
same,hPXR Efficacy,human PXR; human,1.35
same,zfPXR Efficacy,zebrafish PXR [5]; zebrafish,0.69
same,Toxicity,"HepG2 cells; human, 24 hr",100 µM
same,EC50,chicken PXR [7],> 100 µM
same,EC50,zebrafish PXR [8],13.8 µM
same,EC50,rat PXR [9],> 100 µM
